Values after ≈ are worked out from the molar mass of the structure shown. Read-outs that look alike come from different tables or passages of the source.
Columns and labels:
[1] = Total antioxidant capacity (reduction of Mo (VI) to Mo (V)); conditions: 80 μg/ml, 695 nm, mean ± SD (n = 3)
Method: The antioxidant capacity of the compounds was assessed by the method as described earlier. The compound was added to a mixture of sulphuric acid (0.6 M), sodium phosphate (28 mM), and ammonium molybdate (4 mM) and heated in a water bath at 95°C for 90 min. After cooling to room temperature, the absorbance of the mixture was recorded at 695 nm against blank. A standard antioxidant catechin was used for comparison.

[2] = DPPH radical scavenging assay; conditions: mean ± SD (n = 3)
Method: The DPPH radical scavenging ability of the compounds was estimated using the method described by Choi et al.. Catechin was used as a standard antioxidant for comparison. Compound at different concentrations was added to a methanolic solution of DPPH (0.135 mM) and vortexed and left for 30 minutes in the dark. The absorbance of the reaction mixture was measured spectrophotometrically at 517 nm. DPPH free radical scavenging ability (%) was calculated by using the following formula:(4) Absorbance of control−Absorbance of sample/Absorbance of control×100.
The result was presented as IC50 value which is the concentration required to cause 50% scavenging. The IC50 value was calculated from the graph plotted as percent scavenging of DPPH free radical against concentration of each compound.

[3] = Reducing power assay (Fe+3-ferricyanide reduction)
Method: The reducing power of the compounds was determined by the method of Oyaizu. The compound (1 ml) was added to a mixture of 0.2 M potassium buffer (2.5 ml) and 1% potassium ferricyanide (2.5 ml) and incubated at 50°C for 20 minutes. Then, 10% TCA solution (2.5 ml) was added to the reaction mixture and centrifuged (3000 rpm) for 10 minutes. Finally, 2.5 ml of solution was mixed with 2.5 ml of double distilled water and 0.5 ml of 0.1% ferric chloride solution. The absorbance of the reaction mixture was recorded at 700 nm. A standard antioxidant catechin was used for comparison.

[4] = tested on: lipid peroxidation in mouse brain homogenate; test: Lipid peroxidation inhibition assay (TBARS); format: biochemical; conditions: ferric ion plus ascorbic acid, mean ± SD (n = 3)
Method: . Catechin was used as a reference antioxidant. Mouse brain homogenate was employed as the source of lipid which was prepared by homogenizing the brain in the phosphate buffer followed by centrifugation at 10,000 g. Lipid peroxidation was induced by ferric ion plus ascorbic acid. The TBARS produced from the reaction of lipid peroxides with thiobarbituric acid was determined colorimetrically at 532 nm. Results were presented as percentage of lipid peroxidation inhibition in relation to the control. The IC50 values were determined from the graph plotted as percent inhibition of lipid peroxidation against concentration of each compound.

[5] = Hydroxyl radical scavenging assay (deoxyribose degradation method); conditions: mean ± SD (n = 3)
Method: The potential of the compounds to scavenge the hydroxyl free radical was assayed by the deoxyribose degradation method as described by Elizabeth and Rao [23]. Catechin was used as a reference antioxidant. Compound at different concentrations was mixed with a reaction mixture containing 2.8 mM 2-deoxy-2-ribose, 20 mM phosphate buffer (pH 7.4), 100 μM FeCl3, 100 μM EDTA, 1.0 mM H2O2, and 100 μM ascorbic acid and incubated at 37°C for 1 hour. This was then followed by the addition of 2.8% trichloro acetic acid (TCA) and 1% TBA. The reaction mixture was heated on a boiling water bath. After cooling, the absorbance was measured at 532 nm against an appropriate blank solution. The result was expressed as percent scavenging of hydroxyl radical in relation to the control. The IC50 values were calculated from the graph plotted as percent scavenging of hydroxyl free radical against concentration of each compound.

AChE = molecular target: T1, AChE (Mus musculus, UniProt P21836); test: biochemical; conditions: for Z-factor of acetylcholinesterase inhibitory activity: assay performance of the compound versus control
T1 construct: The AChE enzyme was prepared from mouse brain as described earlier; from tissue; host or cells: brain of Swiss albino mice
Method: The AChE enzyme was prepared from mouse brain as described earlier. Compound at different concentrations was mixed with AChE solution and incubated at 37°C for 15 min. The rates of hydrolysis by AChE was monitored by spectrophotometer at 405 nm immediately after adding an Ellman's reaction mixture containing 0.5 mM acetylthiocholine and 1 mM 5, 5′-dithio-bis (2-nitro benzoic acid) (DTNB) in a 50 mM phosphate buffer (pH 8.0) to the above reaction mixture. […] The percentage inhibition of AChE activity was calculated using the following formula:(1) Absorbance of control−Absorbance of sample/Absorbance of control×100.
IC50 value could be calculated from the inhibition curve obtained by plotting the percent inhibition values against test concentrations of each compound.
Quality of assay was assessed by using Z' factor as follows:(2) Z′=1−3σc++σc−/μc+−μc−, where σc+ and σc−are the standard deviations of the positive and negative control and μc+ and μc−are the means of the positive and negative control, respectively.

[6] = 100 μg/ml, 700 nm (as stated in Figure 4 legend), mean ± SD (n = 3)
[7] = mouse brain AChE, acetylthiocholine substrate, mean ± SD (n = 3), read-out: IC50, inhibition of acetylcholinesterase activity (converted)

T1 sequence (P21836 32-614): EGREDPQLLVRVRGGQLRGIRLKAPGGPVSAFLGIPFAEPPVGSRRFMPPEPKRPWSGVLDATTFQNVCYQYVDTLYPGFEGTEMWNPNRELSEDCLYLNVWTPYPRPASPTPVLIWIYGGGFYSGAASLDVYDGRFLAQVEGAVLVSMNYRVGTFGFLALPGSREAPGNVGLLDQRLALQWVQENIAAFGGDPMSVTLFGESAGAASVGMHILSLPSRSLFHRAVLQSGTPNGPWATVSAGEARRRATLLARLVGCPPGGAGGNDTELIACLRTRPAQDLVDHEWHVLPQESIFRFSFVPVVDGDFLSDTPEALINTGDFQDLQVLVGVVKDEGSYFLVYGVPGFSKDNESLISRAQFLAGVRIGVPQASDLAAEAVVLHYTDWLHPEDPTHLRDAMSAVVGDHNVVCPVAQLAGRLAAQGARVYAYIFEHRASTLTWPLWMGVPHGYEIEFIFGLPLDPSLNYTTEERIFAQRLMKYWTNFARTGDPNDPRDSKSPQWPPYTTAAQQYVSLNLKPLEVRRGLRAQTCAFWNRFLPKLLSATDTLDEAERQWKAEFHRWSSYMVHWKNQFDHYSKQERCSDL

SMILES | Total antioxidant activity, absorbance [1] | IC50, DPPH radical scavenging [2] | Reducing power, absorbance [3, 6] | IC50, inhibition of lipid peroxidation [4] | IC50, hydroxyl radical scavenging [5] | IC50, inhibition of acetylcholinesterase activity (AChE; mouse brain AChE, acetylthiocholine substrate, mean ± SD (n = 3)) | IC50 (AChE) | Z-factor of acetylcholinesterase inhibitory activity (AChE) | Reducing power, absorbance ([3]; 80 μg/ml) | IC50 (AChE; [7])
O.Oc1cc(O)c2c(c1)O[C@H](c1ccc(O)c(O)c1)[C@@H](O)C2 [Catechin, reference compound] | 1.739 ± 0.049 | 4.35 ± 0.09 µg/mL | 1.964 ± 0.019 | 14.10 ± 0.43 µg/mL | 9.32 ± 0.39 µg/mL | – | – | – | – | –
CCCCC/C=C\C/C=C\CCCCCCCC(=O)OC [Compound 1, methyl linoleate] | no activity | no activity | no activity | no activity | no activity | no activity | – | – | – | –
COc1cc(C=O)ccc1O [Compound 3, vanillin] | 0.716 ± 0.020 | 19.64 ± 0.73 µg/mL (≈ 129 µM) | 0.746 ± 0.005 | 57.02 ± 2.78 µg/mL | 21.72 ± 0.87 µg/mL (≈ 143 µM) | – | 556 µM | 0.91 | 0.746 ± 0.005 | –
COc1cc(C=O)cc(OC)c1O [Compound 2, syringaldehyde] | 0.336 ± 0.009 | 40.64 ± 1.68 µg/mL (≈ 223 µM) | 0.667 ± 0.035 | 141.60 ± 6.19 µg/mL | 91.05 ± 3.75 µg/mL (≈ 500 µM) | – | 6960 µM | 0.80 | 0.667 ± 0.035 | –
COc1cc(CCCOC(=O)CCc2ccc(O)cc2)ccc1O [Compound 4, dihydroconiferyl dihydro-p-coumarate] | 0.735 ± 0.022 | 12.16 ± 0.55 µg/mL (≈ 36.8 µM) | 0.894 ± 0.014 | 44.20 ± 1.01 µg/mL | 15.07 ± 1.20 µg/mL (≈ 45.6 µM) | – | – | 0.87 | 0.894 ± 0.014 | 358 µM
COc1cc(O)cc(CCc2ccc(O)c(OC)c2)c1 [Compound 5, gigantol] | 0.848 ± 0.029 | 4.16 ± 0.37 µg/mL (≈ 15.2 µM) | 1.865 ± 0.030 | 32.28 ± 1.10 µg/mL | 6.61 ± 0.76 µg/mL (≈ 24.1 µM) | – | – | 0.80 | 1.865 ± 0.030 | 2000 µM

Reference: paper PMC8019628, “Acetylcholinesterase Inhibitory and Antioxidant Activity of the Compounds Isolated from Vanda roxburghii” (Advances in Pharmacological and Pharmaceutical Sciences, 2021)
